Reference: PubChem BioAssay (NCI)
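48-hour exposure; five concentrations; linearly interpolated endpoints. At the GI50, growth is halved. TGI denotes the concentration required for complete inhibition of growth.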

Experiments:
Experiment in all cases: inhibition of tumour cell growth, NCI panel, 48 h
NCI-H23 lung = system: NCI-H23 lung
NCI-H460 lung = system: NCI-H460 lung
NCI-H522 lung = system: NCI-H522 lung
NCI/ADR-RES ovarian = system: NCI/ADR-RES ovarian
OVCAR-3 ovarian = system: OVCAR-3 ovarian
OVCAR-4 ovarian = system: OVCAR-4 ovarian
OVCAR-5 ovarian = system: OVCAR-5 ovarian
OVCAR-8 ovarian = system: OVCAR-8 ovarian
PC-3 prostate = system: PC-3 prostate
RPMI-8226 leukemia = system: RPMI-8226 leukemia
RXF 393 renal = system: RXF 393 renal
SF-268 CNS = system: SF-268 CNS
SF-295 CNS = system: SF-295 CNS
SF-539 CNS = system: SF-539 CNS
SK-MEL-2 melanoma = system: SK-MEL-2 melanoma
SK-MEL-28 melanoma = system: SK-MEL-28 melanoma
SK-MEL-5 melanoma = system: SK-MEL-5 melanoma
SK-OV-3 ovarian = system: SK-OV-3 ovarian
SN12C renal = system: SN12C renal
SNB-19 CNS = system: SNB-19 CNS
SNB-75 CNS = system: SNB-75 CNS
SR leukemia = system: SR leukemia
SW-620 colon = system: SW-620 colon
T-47D breast = system: T-47D breast
TK-10 renal = system: TK-10 renal
U251 CNS = system: U251 CNS
UACC-257 melanoma = system: UACC-257 melanoma
UACC-62 melanoma = system: UACC-62 melanoma
UO-31 renal = system: UO-31 renal

**Q.** `C=CCNCCN1C(=O)c2ccc3c4c(ccc(c24)C1=O)C(=O)N(CCNCC=C)C3=O` was tested. Which GI50 (NCI-H23 lung) did it give?
**A.** 938 nM

**Q.** What about the TGI (NCI-H23 lung) of the same compound?
**A.** 2100 nM

**Q.** And the GI50 (NCI-H460 lung)?
**A.** 258 nM

**Q.** What about the TGI (NCI-H460 lung) of the same compound?
**A.** 1730 nM

**Q.** And the GI50 (NCI-H522 lung)?
**A.** 616 nM

**Q.** And the TGI (NCI-H522 lung)?
**A.** 1540 nM

**Q.** And the GI50 (NCI/ADR-RES ovarian)?
**A.** 995 nM

**Q.** And the TGI (NCI/ADR-RES ovarian)?
**A.** 5290 nM

**Q.** And the GI50 (OVCAR-3 ovarian)?
**A.** 990 nM

**Q.** What about the TGI (OVCAR-3 ovarian) of the same compound?
**A.** 3270 nM

**Q.** What about the GI50 (OVCAR-4 ovarian) of the same compound?
**A.** 315 nM

**Q.** What about the TGI (OVCAR-4 ovarian) of the same compound?
**A.** 1000 nM

**Q.** What about the GI50 (OVCAR-5 ovarian) of the same compound?
**A.** 1040 nM

**Q.** What about the TGI (OVCAR-5 ovarian) of the same compound?
**A.** 3090 nM

**Q.** And the GI50 (OVCAR-8 ovarian)?
**A.** 421 nM

**Q.** And the TGI (OVCAR-8 ovarian)?
**A.** 4000 nM

**Q.** What about the GI50 (PC-3 prostate) of the same compound?
**A.** 1340 nM

**Q.** And the TGI (PC-3 prostate)?
**A.** 16600 nM

**Q.** And the GI50 (RPMI-8226 leukemia)?
**A.** 953 nM

**Q.** And the TGI (RPMI-8226 leukemia)?
**A.** 4230 nM

**Q.** And the GI50 (RXF 393 renal)?
**A.** 696 nM

**Q.** What about the TGI (RXF 393 renal) of the same compound?
**A.** 1480 nM

**Q.** What about the GI50 (SF-268 CNS) of the same compound?
**A.** 753 nM

**Q.** And the TGI (SF-268 CNS)?
**A.** 3540 nM

**Q.** What about the GI50 (SF-295 CNS) of the same compound?
**A.** 397 nM

**Q.** What about the TGI (SF-295 CNS) of the same compound?
**A.** 1280 nM

**Q.** And the GI50 (SF-539 CNS)?
**A.** 847 nM

**Q.** What about the TGI (SF-539 CNS) of the same compound?
**A.** 1960 nM

**Q.** What about the GI50 (SK-MEL-2 melanoma) of the same compound?
**A.** 891 nM

**Q.** What about the TGI (SK-MEL-2 melanoma) of the same compound?
**A.** 1740 nM

**Q.** And the GI50 (SK-MEL-28 melanoma)?
**A.** 1180 nM

**Q.** What about the TGI (SK-MEL-28 melanoma) of the same compound?
**A.** 2680 nM

**Q.** And the GI50 (SK-MEL-5 melanoma)?
**A.** 584 nM

**Q.** What about the TGI (SK-MEL-5 melanoma) of the same compound?
**A.** 1200 nM

**Q.** What about the GI50 (SK-OV-3 ovarian) of the same compound?
**A.** 1050 nM

**Q.** And the TGI (SK-OV-3 ovarian)?
**A.** 2800 nM

**Q.** And the GI50 (SN12C renal)?
**A.** 489 nM

**Q.** And the TGI (SN12C renal)?
**A.** 1260 nM

**Q.** What about the GI50 (SNB-19 CNS) of the same compound?
**A.** 650 nM

**Q.** What about the TGI (SNB-19 CNS) of the same compound?
**A.** 1350 nM

**Q.** And the GI50 (SNB-75 CNS)?
**A.** 874 nM

**Q.** What about the TGI (SNB-75 CNS) of the same compound?
**A.** 1670 nM

**Q.** What about the GI50 (SR leukemia) of the same compound?
**A.** 811 nM

**Q.** What about the TGI (SR leukemia) of the same compound?
**A.** 2920 nM

**Q.** What about the GI50 (SW-620 colon) of the same compound?
**A.** 402 nM

**Q.** And the TGI (SW-620 colon)?
**A.** 1630 nM

**Q.** And the GI50 (T-47D breast)?
**A.** 1200 nM

**Q.** What about the TGI (T-47D breast) of the same compound?
**A.** 2650 nM

**Q.** And the GI50 (TK-10 renal)?
**A.** 1110 nM

**Q.** And the TGI (TK-10 renal)?
**A.** 3430 nM

**Q.** And the GI50 (U251 CNS)?
**A.** 526 nM

**Q.** And the TGI (U251 CNS)?
**A.** 1260 nM

**Q.** What about the GI50 (UACC-257 melanoma) of the same compound?
**A.** 786 nM

**Q.** And the TGI (UACC-257 melanoma)?
**A.** 1490 nM

**Q.** What about the GI50 (UACC-62 melanoma) of the same compound?
**A.** 895 nM

**Q.** And the TGI (UACC-62 melanoma)?
**A.** 1680 nM

**Q.** What about the GI50 (UO-31 renal) of the same compound?
**A.** 716 nM

**Q.** And the TGI (UO-31 renal)?
**A.** 1690 nM
